Tests used:
Assay in all cases: relative viability (nuclei count vs DMSO), 5 days (fraction); higher = more cells survive
Cediranib = compound: COc1cc2c(Oc3ccc4[nH]c(C)cc4c3F)ncnc2cc1OCCCN1CCCC1 [Cediranib]
Summary of the method: (§1)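 Lung cancer cell lines in 1536-well plates were exposed by pinning to five library-drug doses (not always all listed) √10 apart, following an overnight hold at 37 °C. MetaXpress counted Hoechst-stained nuclei from 4× images taken after 5 days without medium change. Viability is the median ratio of treated-well to vehicle-well nuclei across plates. Plates required control CV below 25% and at least one doubling.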

Decitabine = compound: Nc1ncn([C@H]2C[C@H](O)[C@@H](CO)O2)c(=O)n1 [Decitabine]
Summary of the method: as §1

Halofuginone = compound: O=C(C[C@H]1NCCC[C@@H]1O)Cn1cnc2cc(Br)c(Cl)cc2c1=O (racemic) [Halofuginone]
Summary of the method: as §1

Cell Line | relative viability (Cediranib; 0.04 µM) | relative viability (Cediranib; 0.1265 µM) | relative viability (Cediranib; 0.4 µM) | relative viability (Cediranib; 1.265 µM) | relative viability (Cediranib; 4 µM) | relative viability (Decitabine; 0.04 µM) | relative viability (Decitabine; 0.1265 µM) | relative viability (Decitabine; 0.4 µM) | relative viability (Decitabine; 1.265 µM) | relative viability (Decitabine; 2 µM, anchor plate) | relative viability (Decitabine; 4 µM) | relative viability (Halofuginone; 0.001 µM) | relative viability (Halofuginone; 0.003162 µM) | relative viability (Halofuginone; 0.01 µM) | relative viability (Halofuginone; 0.03162 µM) | relative viability (Halofuginone; 0.1 µM)
NCI-H727 | 0.631 | 0.824 | 0.906 | 0.935 | 0.989 | 0.733 | 0.658 | 0.662 | 0.579 | 0.903 | 0.553 | 1.01 | 0.88 | 0.788 | 0.848 | 0.65
PC-3 [JPC-3] | 0.921 | 0.959 | 0.933 | 1.09 | 0.973 | – | 0.85 | 0.537 | 0.611 | 0.847 | 0.627 | 1.06 | 1.04 | 1.01 | 1.09 | 0.982
SW 1573 | 1.01 | 0.974 | 0.969 | 0.828 | 0.927 | 0.815 | 0.944 | 0.732 | 0.486 | 0.504 | 0.379 | 1.08 | 1.06 | 0.908 | 0.692 | 0.278
NCI-H2228 | 1.18 | 1.08 | 0.763 | 1.06 | 1.13 | 0.665 | 0.539 | 0.426 | 0.283 | – | 0.275 | 0.966 | 0.995 | 0.981 | 0.642 | 0.194
NCI-H1650 | 1 | 0.962 | 0.833 | 0.8 | 0.822 | 0.599 | 0.657 | 0.507 | 0.346 | 0.422 | 0.338 | 1 | 1.01 | 0.883 | 0.811 | 0.19
NCI-H358 | 0.945 | 1.13 | 0.893 | 0.9 | 0.899 | 0.65 | 0.456 | 0.407 | 0.285 | 0.229 | 0.224 | 0.994 | 0.892 | 0.705 | 0.341 | 0.142
NCI-H1792 | 0.862 | 0.846 | 0.84 | 0.931 | 0.795 | 0.802 | 0.857 | 0.889 | 0.534 | 0.526 | 0.507 | 0.923 | 0.897 | 0.902 | 0.913 | 0.633
COR-L 105 | 0.862 | 0.911 | 0.944 | 0.889 | 0.923 | 0.666 | 0.798 | 0.711 | 0.648 | 0.696 | 0.577 | 1.07 | 0.955 | 0.874 | 0.824 | 0.711
LU99A | 0.982 | – | 0.976 | 0.845 | 0.985 | 0.923 | 0.987 | 0.981 | 0.868 | 0.906 | 0.773 | 0.971 | 0.955 | 0.928 | 0.814 | 0.821
H3255 | 1.1 | 0.859 | 0.964 | 0.938 | 0.986 | 0.636 | 0.857 | 0.702 | 0.668 | 0.657 | 0.666 | 1.07 | 0.99 | 0.88 | 0.95 | 0.992
NCI-H1734 | 0.897 | 0.951 | 0.96 | 0.821 | 1.09 | 0.804 | 0.829 | 0.69 | 0.498 | 0.517 | 0.363 | 1 | 1.06 | 0.985 | 0.984 | 0.751
NCI-H650 | 0.892 | 0.787 | 0.961 | 0.87 | 0.996 | 0.717 | 0.596 | 0.363 | 0.325 | 0.31 | 0.332 | 1.04 | 1.01 | 0.956 | 0.881 | 0.719
NCI-H1915 | 0.969 | 0.832 | 0.96 | 1.04 | 0.996 | 0.502 | 0.421 | 0.329 | 0.26 | 0.265 | 0.292 | 0.957 | 1.13 | 0.959 | 0.998 | 0.943
Calu-6 | 0.982 | 1.03 | 0.977 | 1.04 | 1.03 | 0.785 | 0.644 | 0.383 | 0.301 | – | 0.272 | 1.08 | 1.04 | 1 | 0.633 | 0.279
NCI-H2009 | 1.01 | 0.958 | 0.984 | 0.988 | 1.1 | 0.837 | 0.706 | 0.504 | 0.349 | 0.387 | 0.343 | 1.04 | 1.18 | 0.948 | 0.883 | 0.597
NCI-H1651 | 0.977 | 0.963 | 0.96 | 0.951 | 0.999 | 0.954 | 1.01 | 0.961 | 0.799 | 0.64 | 0.767 | 0.983 | 1.14 | 0.966 | 0.934 | 0.735
HOP-62 | 1.07 | 0.695 | 0.892 | 0.983 | 1.08 | 0.631 | 0.472 | 0.253 | 0.165 | 0.212 | 0.199 | 0.964 | 1.11 | 1.01 | 0.863 | 0.69
CAL-12T | 1 | 0.974 | 0.937 | 1.01 | 1.01 | 0.726 | 0.843 | 0.502 | 0.548 | – | 0.461 | 1.03 | 1.02 | 1.03 | 1.12 | 0.85
LCLC-103H | 1.07 | 1.03 | 0.952 | 1.06 | 1.06 | 1.07 | 1.05 | 0.917 | 0.85 | 0.736 | 0.805 | 0.992 | 1.05 | 0.994 | 0.96 | 0.945
NCI-H3122 | 1.09 | 0.765 | 0.977 | 1 | 1.01 | 0.964 | 0.964 | 0.624 | 0.473 | 0.471 | 0.647 | 1 | 0.984 | 0.968 | 0.941 | 0.95
NCI-H1395 | 0.885 | 0.832 | 0.887 | 0.884 | 0.993 | 0.627 | 0.671 | 0.729 | 0.508 | 0.744 | 0.528 | 0.984 | 0.872 | 0.809 | 0.868 | 0.768
PC-14 | 1.06 | 1.08 | 0.959 | 0.931 | 0.998 | 0.393 | 0.449 | 0.156 | 0.149 | 0.218 | 0.163 | 1.02 | 1 | 0.93 | 0.639 | 0.348

Source: the supplement of paper PMC10307832
